Test results: patent US20220306640A1, “HYDANTOIN DERIVATIVE” (ONO PHARMACEUTICAL CO., LTD., priority 2019, published 2022)

What was measured:
DDR1 = target: T1, DDR1 (Homo sapiens, UniProt Q08345); assay: Measurement of DDR1 inhibitory activity (LanthaScreen system, in vitro test); assay type: binding; details: GST-DDR1, Kinase tracer 178
T1 construct: purchased Invitrogen
How it was run: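 TR-FRET tracer-displacement binding assay with GST-DDR1, Kinase tracer 178 and Eu-anti-GST antibody in HEPES pH 7.5, MgCl2, EGTA, Brij-35 buffer, 1% DMSO. Compound preincubated with enzyme 15 min at RT, then tracer/antibody 1 h at RT; 665/615 nm read. Percent inhibition versus no-enzyme and DMSO controls; IC50 from inhibition curves.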

KDR = KDR (Homo sapiens, UniProt P35968); assay: Evaluation of kinase selectivity: % inhibition rate of KDR at 1 μmol/L; assay type: biochemical; details: compound at 1 μmol/L
Method: (§1) Biological Example 3: Evaluation of Kinase Selectivity
(§2) % inhibition rate with respect to various kinases (for example KDR etc.) of 1 μmol/L the test compound is measured.
(§3) A general assay condition (substrates, cofactor, ATP concentrations and reaction time etc.) suitable for respective kinase enzyme inhibition activity test is used.
(§4) 1 Prepare the test compounds into 1 mmol/L DMSO solution. 2 Transfer 20 nL of stock to 384 assay plate. Use DMSO as High and Low controls.
(§5) 1 Prepare the 1.3× Enzyme solution containing enzyme, substrate and cofactors. 2 Add 15 μL of 1.3× Enzyme solutions to each well and incubate the plate at room temperature for 30 min. 3 Initiate the reaction by adding 5 μL of 4×ATP solution. The final volume of each well should be 20 μL. 4 Incubate the plate at room temperature for reaction and add 75 μL of stopping buffer (containing 0.5 mol/L EDTA) to terminate the reaction.
(§6) Analyze the sample of each well using EZ reader (PerkinElmer).
(§7) Calculate the % Inhibition using read conversion ratio (CR) following the equation as below.
(§8) Use well treated with DMSO as High Control Use well without enzyme as Low Control

Flt-3 = target: T2, Flt-3 (Homo sapiens, UniProt P36888); assay: Evaluation of kinase selectivity: % inhibition rate of Flt-3 at 1 μmol/L; assay type: biochemical; details: compound at 1 μmol/L
T2 sequence (P36888 27-993): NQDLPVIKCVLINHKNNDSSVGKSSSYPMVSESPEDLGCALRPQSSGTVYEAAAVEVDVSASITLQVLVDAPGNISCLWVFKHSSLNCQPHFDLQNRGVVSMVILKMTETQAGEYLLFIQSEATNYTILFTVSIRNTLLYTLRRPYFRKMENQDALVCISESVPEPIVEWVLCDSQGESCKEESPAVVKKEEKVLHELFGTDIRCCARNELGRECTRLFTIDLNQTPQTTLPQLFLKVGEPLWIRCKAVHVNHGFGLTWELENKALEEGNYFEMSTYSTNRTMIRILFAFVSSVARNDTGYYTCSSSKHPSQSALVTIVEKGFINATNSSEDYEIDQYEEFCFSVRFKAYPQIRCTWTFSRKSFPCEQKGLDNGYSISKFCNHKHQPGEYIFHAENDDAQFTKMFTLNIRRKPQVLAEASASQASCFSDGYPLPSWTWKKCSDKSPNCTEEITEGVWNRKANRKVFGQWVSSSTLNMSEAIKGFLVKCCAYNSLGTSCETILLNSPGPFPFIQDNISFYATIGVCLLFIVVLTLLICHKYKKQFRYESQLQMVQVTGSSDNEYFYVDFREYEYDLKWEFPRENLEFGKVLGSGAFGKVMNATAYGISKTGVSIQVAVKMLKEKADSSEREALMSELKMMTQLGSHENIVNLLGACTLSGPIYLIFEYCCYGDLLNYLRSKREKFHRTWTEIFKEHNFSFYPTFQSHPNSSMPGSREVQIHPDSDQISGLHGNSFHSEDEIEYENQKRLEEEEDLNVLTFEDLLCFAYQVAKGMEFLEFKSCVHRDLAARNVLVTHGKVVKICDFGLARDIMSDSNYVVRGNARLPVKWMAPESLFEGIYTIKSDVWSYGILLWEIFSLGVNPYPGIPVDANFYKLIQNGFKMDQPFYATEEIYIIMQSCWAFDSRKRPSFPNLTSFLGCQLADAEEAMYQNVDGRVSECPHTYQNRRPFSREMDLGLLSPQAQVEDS
Method: as §1, §2, §3, §4, §5, §6, §7, §8

ROCK = ROCK (Homo sapiens, UniProt O75116); assay: Evaluation of kinase selectivity: % inhibition rate of ROCK at 1 μmol/L; assay type: biochemical; details: compound at 1 μmol/L; read-out: % inhibition rate of ROCK2
Method: as §1, §2, §3, §4, §5, §6, §7, §8

ROCK, sequence (O75116 whole entry): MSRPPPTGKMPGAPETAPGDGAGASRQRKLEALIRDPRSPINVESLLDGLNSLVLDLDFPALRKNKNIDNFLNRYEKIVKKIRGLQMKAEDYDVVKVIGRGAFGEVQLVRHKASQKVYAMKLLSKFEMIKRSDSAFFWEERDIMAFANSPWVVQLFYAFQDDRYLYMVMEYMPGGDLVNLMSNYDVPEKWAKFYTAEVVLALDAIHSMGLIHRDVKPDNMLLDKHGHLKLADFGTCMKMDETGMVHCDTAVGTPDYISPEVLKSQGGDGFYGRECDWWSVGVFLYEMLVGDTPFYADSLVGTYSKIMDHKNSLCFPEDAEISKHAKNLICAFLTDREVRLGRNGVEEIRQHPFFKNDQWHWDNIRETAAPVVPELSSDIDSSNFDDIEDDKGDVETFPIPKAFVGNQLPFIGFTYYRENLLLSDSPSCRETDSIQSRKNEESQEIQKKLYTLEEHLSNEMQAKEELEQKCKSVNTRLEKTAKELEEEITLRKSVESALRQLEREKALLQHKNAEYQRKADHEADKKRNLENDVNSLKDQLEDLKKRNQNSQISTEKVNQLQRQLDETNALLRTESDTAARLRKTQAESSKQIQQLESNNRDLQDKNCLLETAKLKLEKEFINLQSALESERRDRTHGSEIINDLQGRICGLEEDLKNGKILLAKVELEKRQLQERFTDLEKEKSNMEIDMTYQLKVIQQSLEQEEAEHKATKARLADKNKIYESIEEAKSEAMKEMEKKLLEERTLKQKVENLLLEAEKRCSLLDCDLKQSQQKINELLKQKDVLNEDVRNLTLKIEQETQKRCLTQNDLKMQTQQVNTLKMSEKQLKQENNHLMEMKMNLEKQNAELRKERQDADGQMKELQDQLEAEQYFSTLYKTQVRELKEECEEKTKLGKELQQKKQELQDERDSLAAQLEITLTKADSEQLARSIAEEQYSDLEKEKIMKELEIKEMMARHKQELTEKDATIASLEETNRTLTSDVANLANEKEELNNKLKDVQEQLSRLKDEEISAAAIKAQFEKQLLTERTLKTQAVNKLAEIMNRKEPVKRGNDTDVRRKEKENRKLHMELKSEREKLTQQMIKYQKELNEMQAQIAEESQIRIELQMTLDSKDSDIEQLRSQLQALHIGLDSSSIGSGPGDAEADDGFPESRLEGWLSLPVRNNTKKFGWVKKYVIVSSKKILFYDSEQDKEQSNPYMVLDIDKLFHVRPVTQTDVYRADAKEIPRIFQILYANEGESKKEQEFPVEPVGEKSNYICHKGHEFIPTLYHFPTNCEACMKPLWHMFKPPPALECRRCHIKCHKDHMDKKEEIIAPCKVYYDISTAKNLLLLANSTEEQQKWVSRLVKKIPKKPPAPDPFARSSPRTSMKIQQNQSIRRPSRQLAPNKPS
KDR, sequence (P35968 20-1356, species assumed): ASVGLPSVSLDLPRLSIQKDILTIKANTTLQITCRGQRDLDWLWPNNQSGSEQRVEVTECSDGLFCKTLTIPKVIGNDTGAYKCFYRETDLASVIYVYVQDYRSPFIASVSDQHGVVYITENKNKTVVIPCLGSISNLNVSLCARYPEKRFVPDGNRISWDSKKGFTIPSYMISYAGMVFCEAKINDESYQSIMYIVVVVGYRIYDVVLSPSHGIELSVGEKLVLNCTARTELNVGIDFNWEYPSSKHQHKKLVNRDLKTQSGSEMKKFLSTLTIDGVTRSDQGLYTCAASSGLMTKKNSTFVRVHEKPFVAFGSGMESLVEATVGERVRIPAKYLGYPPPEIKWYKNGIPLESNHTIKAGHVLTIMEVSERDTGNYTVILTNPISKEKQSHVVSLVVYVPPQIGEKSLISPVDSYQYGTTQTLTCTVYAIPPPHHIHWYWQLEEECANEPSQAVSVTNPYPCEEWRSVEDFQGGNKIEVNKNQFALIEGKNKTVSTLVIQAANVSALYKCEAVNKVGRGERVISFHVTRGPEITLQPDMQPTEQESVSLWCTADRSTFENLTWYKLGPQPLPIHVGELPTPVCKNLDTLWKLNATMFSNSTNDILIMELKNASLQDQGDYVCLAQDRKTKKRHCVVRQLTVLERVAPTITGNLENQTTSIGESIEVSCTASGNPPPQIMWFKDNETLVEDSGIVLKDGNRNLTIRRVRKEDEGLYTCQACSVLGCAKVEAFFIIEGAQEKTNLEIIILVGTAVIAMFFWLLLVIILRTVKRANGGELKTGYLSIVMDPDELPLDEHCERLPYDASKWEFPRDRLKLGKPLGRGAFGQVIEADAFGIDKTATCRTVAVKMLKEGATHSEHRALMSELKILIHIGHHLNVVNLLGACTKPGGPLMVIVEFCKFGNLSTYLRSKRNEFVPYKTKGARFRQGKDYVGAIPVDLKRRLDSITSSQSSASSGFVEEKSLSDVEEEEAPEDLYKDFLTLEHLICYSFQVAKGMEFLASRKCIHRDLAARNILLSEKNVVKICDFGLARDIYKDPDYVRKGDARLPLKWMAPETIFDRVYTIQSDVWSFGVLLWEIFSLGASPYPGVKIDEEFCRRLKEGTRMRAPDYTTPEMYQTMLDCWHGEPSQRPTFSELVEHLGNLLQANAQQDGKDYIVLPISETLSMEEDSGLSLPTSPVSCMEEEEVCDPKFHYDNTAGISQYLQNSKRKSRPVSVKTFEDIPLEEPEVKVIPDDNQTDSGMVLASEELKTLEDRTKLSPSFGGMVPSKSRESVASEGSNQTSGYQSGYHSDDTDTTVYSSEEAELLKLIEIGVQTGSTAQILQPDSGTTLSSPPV
T1 sequence (Q08345 19-913): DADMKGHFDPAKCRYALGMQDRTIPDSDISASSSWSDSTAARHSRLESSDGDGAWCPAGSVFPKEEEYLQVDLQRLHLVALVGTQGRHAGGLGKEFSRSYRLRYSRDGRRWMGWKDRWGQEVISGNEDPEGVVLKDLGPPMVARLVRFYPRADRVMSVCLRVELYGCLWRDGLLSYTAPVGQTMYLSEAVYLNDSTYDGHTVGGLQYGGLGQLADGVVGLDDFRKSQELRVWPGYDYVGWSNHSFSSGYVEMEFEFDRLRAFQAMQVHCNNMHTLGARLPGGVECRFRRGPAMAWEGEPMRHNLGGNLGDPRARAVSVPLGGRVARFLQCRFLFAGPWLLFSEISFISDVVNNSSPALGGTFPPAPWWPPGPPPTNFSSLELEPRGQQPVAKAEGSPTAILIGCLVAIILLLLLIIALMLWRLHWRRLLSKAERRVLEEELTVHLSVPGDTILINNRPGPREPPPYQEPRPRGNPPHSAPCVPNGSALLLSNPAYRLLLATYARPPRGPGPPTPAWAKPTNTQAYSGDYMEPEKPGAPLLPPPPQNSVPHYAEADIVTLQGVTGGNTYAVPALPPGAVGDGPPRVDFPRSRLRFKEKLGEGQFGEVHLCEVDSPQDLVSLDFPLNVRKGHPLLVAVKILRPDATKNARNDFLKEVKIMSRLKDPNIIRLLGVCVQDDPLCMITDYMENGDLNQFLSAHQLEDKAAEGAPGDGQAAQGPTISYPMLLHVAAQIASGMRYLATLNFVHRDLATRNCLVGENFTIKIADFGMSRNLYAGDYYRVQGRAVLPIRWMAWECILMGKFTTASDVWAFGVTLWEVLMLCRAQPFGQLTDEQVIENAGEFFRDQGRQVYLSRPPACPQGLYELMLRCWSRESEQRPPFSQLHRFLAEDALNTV

IC50 (DDR1): 1 nM | inhibition at 1 µM (KDR): 4% | inhibition at 1 µM (Flt-3): 6% | inhibition at 1 µM (ROCK): -2%
SMILES: Cc1cc(Oc2ccnc(N)n2)ccc1N1C(=O)CN(c2ccc(F)c(OC(F)(F)F)c2)C1=O [Example 3(110), 3-{4-[(2-amino-4-pyrimidinyl)oxy]-2-methylphenyl}-1-[4-fluoro-3-(trifluoromethoxy)phenyl]-2,4-imidazolidinedione]
